In PMC4335062, “Data-Driven Prediction and Design of bZIP Coiled-Coil Interactions” (PLoS Computational Biology, 2015):
Like-named read-outs stand apart in the source and are kept apart here. Where no end group is shown, it is not given here.

Tests used:
Assay in all cases: Direct-binding FRET assay
BATF = target: T1, BATF (Homo sapiens, UniProt Q16520); conditions: Kd
T1 construct: made in house
T1 sequence (Q16520 26-89 limits assumed): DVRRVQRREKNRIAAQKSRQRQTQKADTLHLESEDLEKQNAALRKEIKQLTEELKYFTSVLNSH
Experimental: (§1) The direct binding assay was performed manually in 384-well plates and is similar to a previously described assay. Wells were filled with 20 μL of 1 mM TCEP-HCl. A 4 μM stock of acceptor protein was made fresh in 1 mM TCEP-HCl, and 20 μL was titrated in 2-fold dilutions over the wells. […] The direct-binding FRET data were fit as previously described. Briefly, the Kd of the designed peptide homodimer was experimentally determined and used with previously determined target homodimer Kd values to determine the heterodimer Kd. The homodimer Kd values used for the human bZIPs were from; experiments done by […] et al. used the same protein constructs for the human bZIP proteins, the same buffer conditions, and the same assay. The fitting used a system of ordinary differential equations to describe the concentrations of homo and heterodimers formed by the donor (D) and acceptor (A) as a function of the heterodimer Kd. MATLAB was used to simulate the binding experiment for different Kd values, and the value that gave the best agreement between simulation and experiment was assigned. A minimum 15% change in the donor fluorescence upon titrating the acceptor peptide from 0 to 1000 nM was required for a fit to be attempted. If this minimum was not met, the interaction was classified as “NS” for no signal change. […] These interactions were marked “AS” to indicate anomalous signal. We attributed this to interactions between the peptides, the dyes and the walls of the assay plates at low concentrations. These curves could not be fit, given their unusual shapes at low concentrations of acceptor. For such curves, we removed the first five points and re-fit the data. […] One example of this is increasing concentrations of acceptor causing an increase in donor fluorescence.

CREB3L1 = target: T2, CREB3L1 (Homo sapiens, UniProt Q96BA8)
T2 construct: made in house
T2 sequence (Q96BA8 290-353 limits assumed): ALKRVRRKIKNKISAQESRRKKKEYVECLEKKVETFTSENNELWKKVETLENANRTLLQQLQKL
Experimental: as §1

JUNB = target: T3, JUNB (Homo sapiens, UniProt P17275); conditions: Kd, mean or single
T3 construct: made in house
T3 sequence (P17275 268-331 limits assumed): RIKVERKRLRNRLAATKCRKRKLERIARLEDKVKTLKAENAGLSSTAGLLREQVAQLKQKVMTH
Experimental: as §1

CREB3L3 = target: T4, CREB3L3 (Homo sapiens, UniProt Q68CJ9)
T4 construct: made in house
T4 sequence (Q68CJ9 243-306 limits assumed): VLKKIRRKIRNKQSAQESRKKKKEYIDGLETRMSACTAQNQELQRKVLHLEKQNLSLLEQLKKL
Experimental: as §1

NFE2L2 = target: T5, NFE2L2 (Homo sapiens, UniProt Q16236); conditions: Kd
T5 construct: made in house
T5 sequence (Q16236 497-560 limits assumed): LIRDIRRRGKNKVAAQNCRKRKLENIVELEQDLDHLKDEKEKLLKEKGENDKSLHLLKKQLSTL
Experimental: as §1

MAFB = MAFB (Homo sapiens, UniProt Q9Y5Q3); design: made in house; conditions: Kd, mean or single
Experimental: as §1

NFE2L1 = NFE2L1 (Homo sapiens, UniProt Q14494); design: made in house; conditions: Kd, mean or single
Experimental: as §1

BACH2 = BACH2 (Homo sapiens, UniProt Q9BYV9); design: made in house; conditions: Kd
Experimental: as §1

BACH1 = BACH1 (Homo sapiens, UniProt O14867); design: made in house
Experimental: as §1

ATF6 = ATF6 (Homo sapiens, UniProt P18850); design: made in house
Experimental: as §1

MAF = MAF (Homo sapiens, UniProt O75444); design: made in house
Experimental: as §1

[1] = 4°C, C-terminal fluorescein design as donor, TAMRA target titrated
[2] = 4°C, C-terminal rhodamine design, mean or single
[3] = 4°C, N-terminal rhodamine design, mean or single
[4] = 23°C, C-terminal fluorescein design as donor, TAMRA target titrated
[5] = 23°C, C-terminal rhodamine design, mean or single
[6] = 23°C, N-terminal rhodamine design, mean or single
[7] = 37°C, C-terminal fluorescein design as donor, TAMRA target titrated
[8] = 37°C, C-terminal rhodamine design, mean or single
[9] = 37°C, N-terminal rhodamine design, mean or single
[10] = 4°C, C-terminal rhodamine design
[11] = 4°C, N-terminal rhodamine design
[12] = 23°C, C-terminal rhodamine design
[13] = 23°C, N-terminal rhodamine design
[14] = 37°C, C-terminal rhodamine design
[15] = 37°C, N-terminal rhodamine design

Sequence of NFE2L1 (Q14494 654-717 limits assumed): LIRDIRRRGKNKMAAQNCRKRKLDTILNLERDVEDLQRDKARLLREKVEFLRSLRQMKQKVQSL
Sequence of BACH1 (O14867 557-620 limits assumed): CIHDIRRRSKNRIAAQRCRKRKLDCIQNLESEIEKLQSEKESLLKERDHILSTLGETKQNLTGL
Sequence of MAF (O75444 288-351 limits assumed): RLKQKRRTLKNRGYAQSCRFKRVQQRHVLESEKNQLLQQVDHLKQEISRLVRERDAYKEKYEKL
Sequence of ATF6 (P18850 306-369 limits assumed): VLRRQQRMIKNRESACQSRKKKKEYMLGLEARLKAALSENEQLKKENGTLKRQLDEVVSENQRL
Sequence of BACH2 (Q9BYV9 646-709 limits assumed): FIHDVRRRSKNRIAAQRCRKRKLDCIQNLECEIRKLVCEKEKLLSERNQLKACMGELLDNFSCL

SIAATLEKEEANLEKMNKKLAAEIESLLKEKDKLESVLNYHE [JUN-d1]
Kd (BATF; [1]): > 1000 nM
Kd (BATF; [2]): 200 to 1000 nM
Kd (BATF; [3]): > 1000 nM
Kd (BATF; [4]): > 1000 nM
Kd (BATF; [5]): > 1000 nM
Kd (BATF; [6]): > 1000 nM
Kd (BATF; [7]): > 1000 nM
Kd (BATF; [8]): > 1000 nM
Kd (BATF; [9]): > 1000 nM
Kd (CREB3L1): > 1000 nM
Kd (CREB3L1; [2]): > 1000 nM
Kd (CREB3L1; [3]): > 1000 nM
Kd (CREB3L1; [5]): > 1000 nM
Kd (CREB3L1; [6]): > 1000 nM
Kd (CREB3L1; [9]): > 1000 nM
Kd (JUNB; [10]): 1 nM
Kd (JUNB; [11]): 2.7 nM
Kd (JUNB; [12]): 8.4 nM
Kd (JUNB; [13]): 53 nM
Kd (JUNB; [14]): 51 nM
Kd (JUNB; [15]): 850 nM
Kd (CREB3L3): > 1000 nM
Kd (CREB3L3; [1]): > 1000 nM
Kd (CREB3L3; [2]): > 1000 nM
Kd (CREB3L3; [3]): > 1000 nM
Kd (CREB3L3; [4]): > 1000 nM
Kd (CREB3L3; [5]): > 1000 nM
Kd (CREB3L3; [6]): > 1000 nM
Kd (CREB3L3; [7]): > 1000 nM
Kd (CREB3L3; [9]): > 1000 nM
Kd (NFE2L2; [1]): > 1000 nM
Kd (NFE2L2; [2]): > 1000 nM
Kd (NFE2L2; [3]): > 1000 nM
Kd (NFE2L2; [4]): > 1000 nM
Kd (NFE2L2; [5]): > 1000 nM
Kd (NFE2L2; [6]): > 1000 nM
Kd (NFE2L2; [7]): > 1000 nM
Kd (NFE2L2; [8]): > 5000 nM
Kd (NFE2L2; [9]): > 1000 nM
Kd (MAFB; [10]): 326 nM
Kd (MAFB; [11]): > 1000 nM
Kd (MAFB; [12]): > 1000 nM
Kd (MAFB; [13]): > 1000 nM
Kd (MAFB; [14]): > 1000 nM
Kd (MAFB; [15]): > 1000 nM
Kd (NFE2L1; [10]): > 5000 nM
Kd (NFE2L1; [11]): > 1000 nM
Kd (NFE2L1; [12]): > 5000 nM
Kd (NFE2L1; [13]): > 1000 nM
Kd (NFE2L1; [14]): > 5000 nM
Kd (NFE2L1; [15]): > 1000 nM
Kd (BACH2; [1]): > 1000 nM
Kd (BACH2; [2]): > 5000 nM
Kd (BACH2; [3]): > 1000 nM
Kd (BACH2; [4]): > 1000 nM
Kd (BACH2; [5]): > 1000 nM
Kd (BACH2; [6]): > 1000 nM
Kd (BACH2; [7]): > 1000 nM
Kd (BACH2; [8]): > 1000 nM
Kd (BACH2; [9]): > 1000 nM
Kd (BACH1): > 1000 nM
Kd (BACH1; [1]): > 1000 nM
Kd (BACH1; [2]): > 1000 nM
Kd (BACH1; [3]): > 1000 nM
Kd (BACH1; [4]): > 1000 nM
Kd (BACH1; [5]): > 1000 nM
Kd (BACH1; [6]): > 1000 nM
Kd (BACH1; [7]): > 1000 nM
Kd (BACH1; [9]): > 1000 nM
Kd (ATF6): > 1000 nM
Kd (ATF6; [1]): > 1000 nM
Kd (ATF6; [2]): > 1000 nM
Kd (ATF6; [3]): > 1000 nM
Kd (ATF6; [4]): > 1000 nM
Kd (ATF6; [5]): > 1000 nM
Kd (ATF6; [6]): > 1000 nM
Kd (ATF6; [7]): > 1000 nM
Kd (ATF6; [9]): > 1000 nM
Kd (MAF): > 1000 nM
Kd (MAF; [2]): > 1000 nM
Kd (MAF; [3]): > 1000 nM
Kd (MAF; [5]): > 1000 nM
Kd (MAF; [6]): > 1000 nM
Kd (MAF; [9]): > 1000 nM
